Results on nine molecules are retold here after PMC9695012, “Diastereoselective Synthesis of Novel Spiro-Phosphacoumarins and Evaluation of Their Anti-Cancer Activity” (International Journal of Molecular Sciences, 2022).

A short description of one data set: Solubility in water. It counts as physicochemical. Conditions: in words; reason for exclusion from cytotoxicity studies.
The test system of data set [1] is HuTu 80. The experiment in a line: cells. Conditions: Homo sapiens, HuTu80, read-out: IC50, HuTu 80.
The subject of the next data set is MCF-7. The experiment in a line: cells. Format: cell-based, human. Conditions: for IC50: Homo sapiens, MCF7, MTT, cancer cell line, three independent experiments; for SI, MCF-7: selectivity index vs Chang liver normal cells, ns = no selectivity.
A further data set has as its system M-HeLa. The data set is described as follows: cells. It counts as cell-based, human. Conditions: for IC50: Homo sapiens, M-HeLa, MTT, cancer cell line, three independent experiments; for SI, M-HeLa: selectivity index vs Chang liver normal cells, ns = no selectivity.
The test system of data set [2] is HuTu 80. Conditions: for SI, HuTu 80: selectivity index vs Chang liver normal cells, ns = no selectivity.
Data set [3] has as its system Chang Liver. The experiment in a line: cells. Conditions: Homo sapiens, read-out: IC50, Chang Liver.
Data set [4] relates to Chang Liver. Conditions: relative to 5-fluorouracil.
The subject of data set [5] is HuTu 80 cells. The experiment in a line: Intracellular ROS, CellROX Deep Red flow cytometry. Conditions: for CellROX Deep Red fluorescence intensity (ROS production): control 700. It counts as cell-based, human. The source says:
An increase in the production of reactive oxygen species (ROS) by compounds also characterizes the development of apoptosis along the mitochondrial pathway. Mitochondria are a potential source and target of ROS. ROS leads to dysfunction of the mitochondria and, consequently, to irreversible cell damage. In this regard, the effect of the lead compound 2a in HuTu 80 cells on ROS production was investigated using a flow cytometry assay and the CellROX® Deep Red flow cytometry kit. The data presented in Figure 6 show a significant increase in CellROX® Deep Red fluorescence intensity dominated by IC50/2.
HuTu 80 cells were incubated with compound 2a at concentrations of IC50 for 24 h. ROS generation was investigated using flow cytometry assay and CellROX® Deep Red flow cytometry kit. For this HuTu 80 cells were harvested at 2000 rpm for 5 min and then washed twice with ice-cold PBS, followed by resuspension in 0.1 mL of medium without FBS, to which was added 0.2 μL of CellROX® Deep Red and incubated at 37 °C for 30 min After being washed three times, the cells were suspended in PBS, and the production of ROS in the cells was immediately monitored using a flow cytometer Guava easy Cyte, MERCK, Rahway, NJ, USA).
On the technique in general: A flow cytometer gives signals particle by particle.

Data set [6] deals with HuTu 80 cells. The data set is described as follows: Mitochondrial membrane potential, JC-10 flow cytometry. Format: cell-based, human. Conditions: IC50/2 and IC50, more pronounced at IC50/2. The method, then:
The possibility of apoptosis through the mitochondrial pathway was assessed by flow cytometry using the JC-10 fluorescent dye (in the Mitochondria Membrane Potential Kit). In normal cells with a high membrane potential, JC-10 accumulates in the mitochondrial matrix, where it forms aggregates with a red fluorescence. However, in apoptotic cells, a decrease in the membrane potential occurs. JC-10 diffuses from mitochondria and turns into a monomeric form, emitting a green fluorescence, which is recorded by a flow cytometer (Figure 4). […] As in the experiment with V-Alexa Fluor 647, the cytotoxic effect of compound 2a was more pronounced at IC50/2 concentration.
Cells were harvested at 2000 rpm for 5 min and then washed twice with ice-cold PBS, followed by resuspension in JC-10 (10 µg/mL) and incubation at 37 °C for 10 min. After the cells were rinsed three times and suspended in PBS, the JC-10 fluorescence was observed by flow cytometry (Guava easy Cyte, MERCK, Rahway, NJ, USA).

In data set [7] the test system is HuTu 80 cells. The data set is described as follows: Apoptosis induction, annexin V-Alexa Fluor 647 / propidium iodide flow cytometry. Format: cell-based, human. Conditions: 24-h incubation, most active at IC50/2 (12.5 µM), early apoptosis stage. The method, then: Cell Culture. HuTu 80 cells at 1 × 10^6 cells/well in a final volume of 2 mL were seeded into six-well plates. After 24 h of incubation, various concentrations of compound 2a were added to wells.
Cell Apoptosis Analysis. The cells were harvested at 2000 rpm for 5 min and then washed twice with ice-cold PBS, followed by resuspension in binding buffer. Next, the samples were incubated with 5 μL of annexin V- Alexa Fluor 647 (Sigma-Aldrich, St. Louis, MO, USA) and 5 μL of propidium iodide for 15 min at room temperature in the dark. Finally, the cells were analyzed by flow cytometry (Guava easy Cyte, MERCK, Rahway, NJ, USA) within 1 h. The experiments were repeated three times.

Data set [8] relates to HuTu 80 cells. The experiment in a line: Cell cycle analysis by flow cytometry. Conditions: 24 h; for cells in G1/G0 phase: control 77%. It counts as cell-based, human. As to the method:
Taking into account the high potency and selectivity of the compound 2a, some additional experiments were carried out to study in more details its anti-cancer action. The mechanism of action of cytotoxic agents is often associated with cell cycle arrest, which leads to a slowing down of cell proliferation. So, we have performed a cell cycle analysis for the HuTu 80 cells using flow cytometry. […] Meanwhile, the proportion of cells in S phase decreased almost by half (8.2% vs. 4.7%).

`O=C1c2ccccc2C(=O)C12[C@@H]1c3ccc4cc(Br)ccc4c3OP(=O)(O)[C@@H]1[C@H]1CCCN12` [2g, (8a’S,8b’R,13a’S)-4’-bromo-8’-hydroxy-8a’,8b’,9’,10’,11’,13a’-hexahydrospiro[indene-2,13’-naphtho [2’,1’:5,6][1,2]oxaphosphinino [3,4-a]pyrrolizine]-1,3-dione 8’-oxide]: the melting point (as a rule, the temperature, or range, at which the solid turns liquid) is > 300 °C. The solubility in water result in the data set “Solubility in water” is listed as “extremely low”.

As to `COc1ccc2c(c1)OP(=O)(O)[C@@H]1CN(C)C3(C(=O)c4ccccc4C3=O)[C@H]21` [2b, (3aS,9bS)-4-hydroxy-7-methoxy-2-methyl-2,3,3a,9b-tetrahydrospiro[benzo [5,6][1,2]oxaphosphinino [3,4-c]pyrrole-1,2’-indene]-1’,3’-dione 4-oxide], the IC50 – broadly, the concentration that gives 50% inhibition – in the data set on HuTu 80 [1] is 53.4 ± 4.2 µM; in the data set on MCF-7, > 100 µM; with M-HeLa, 59.7 ± 4.6 µM; with Chang Liver [3], 62 ± 5.5 µM. For the same molecule, the “SI, MCF-7” value with MCF-7 was “ns”. Moreover, the “SI, M-HeLa” value in the data set with M-HeLa worked out at 1. In the data set on HuTu 80 [2], the “SI, HuTu 80” value turned out to be 1.2.

`Cc1cc(C)c2c(c1C)OP(=O)(O)[C@@H]1[C@H]3CCCN3C3(C(=O)c4ccccc4C3=O)[C@H]21` [2e, (6aS,6bR,11aS)-6-hydroxy-1,3,4-trimethyl-6a,6b,7,8,9,11a-hexahydrospiro[benzo [5,6][1,2]oxaphosphinino [3,4-a]pyrrolizine-11,2’-indene]-1’,3’-dione 6-oxide]: the melting point is > 300 °C. The IC50 in the data set on HuTu 80 [1] was > 100 µM. Further, in the data set on MCF-7, the IC50 was > 100 µM and the “SI, MCF-7” value was “ns”. Moreover, in the data set on M-HeLa, the IC50 was > 100 µM and the “SI, M-HeLa” value is “ns”. In addition, the “SI, HuTu 80” value with HuTu 80 [2] is listed as “ns”. Also, in the data set on Chang Liver [3], the 50% inhibitory concentration (IC50) is > 100 µM.

For the molecule `Cc1cc(C)c2c(c1C)OP(=O)(O)[C@@H]1CN(C)C3(C(=O)c4ccccc4C3=O)[C@H]21` [2a, (3aS,9bS)-4-hydroxy-2,6,7,9-tetramethyl-2,3,3a,9b-tetrahydrospiro[benzo [5,6][1,2]oxaphosphinino [3,4-c]pyrrole-1,2’-indene]-1’,3’-dione 4-oxide], the melting point was > 300 °C. For the same molecule, the “cytotoxicity against Chang liver normal cell line, fold lower than reference compound” value with Chang Liver [4] is recorded as “more than 10 fold”. Moreover, the half-maximal inhibitory concentration (IC50) with HuTu 80 [1] was 25.1 ± 1.9 µM. In the data set with MCF-7, this molecule had a concentration for half-maximal inhibition (IC50) of 82.3 ± 7.5 µM. Further, in the data set with M-HeLa, the IC50 stood at 52.6 ± 4.1 µM and the “SI, M-HeLa” value is >15. Moreover, the “CellROX Deep Red fluorescence intensity (ROS production)” value in the data set with HuTu 80 cells [5] (IC50 (25 µM)) amounted to 1500. Further, the “CellROX Deep Red fluorescence intensity (ROS production)” value in the data set on HuTu 80 cells [5] (IC50/2 (12.5 µM)) is given as 2000. Further, the “effect on ROS production (in words)” value in the data set on HuTu 80 cells [5] (IC50/2 and IC50, dominated by IC50/2) is given as “increase in ROS production”. Also, the “cytotoxicity against HuTu 80 cell line, fold higher than reference 5-fluorouracil” value in the data set on HuTu 80 [2] (relative to 5-fluorouracil) is recorded as ~2.6 fold. Besides, the “SI, HuTu 80” value in the data set with HuTu 80 [2] is given as >32. For the same molecule, in the data set on Chang Liver [3], the IC50 was > 800 µM. The “effect on mitochondrial membrane potential (in words)” value in the data set with HuTu 80 cells [6] is listed as “significant decrease”. Besides, in the data set on HuTu 80 cells [7], the “induction of apoptosis (in words)” value is recorded as “begins to induce apoptosis”. Further, the “effect on cell cycle (in words)” value in the data set on HuTu 80 cells [8] (12.5 and 25 µM) is “induces G0/G1 phase arrest”. Further, in the data set with HuTu 80 cells [8] (IC50 (25 µM), control 8.2%), the “cells in S phase” value came to 4.7%. Further, the “cells in G1/G0 phase” value in the data set on HuTu 80 cells [8] (IC50 (25 µM)) amounted to 81.0%. The “cells in G1/G0 phase” value with HuTu 80 cells [8] (IC50/2 (12.5 µM)) turned out to be 79.0%.

As for `CN1c2c(c(=O)oc3ccccc23)CC12C(=O)c1ccccc1C2=O`, the melting point was > 300 °C.

For the molecule `O=c1[nH]cc(F)c(=O)[nH]1` [5-fluorouracil, reference compound], the IC50 with HuTu 80 [1] was found to be 65.2 ± 5.6 µM. In the data set on MCF-7, the 50% inhibitory concentration (IC50) is 16.7 ± 1.3 µM and the “SI, MCF-7” value stood at 5. Besides, in the data set with M-HeLa, the IC50 is 62 ± 4.7 µM and the “SI, M-HeLa” value came out at 1.4. In the data set with HuTu 80 [2], the “SI, HuTu 80” value turned out to be 1.3.

Take `CN1C[C@@H]2[C@@H](c3c(O)c(Cl)cc(Cl)c3OP2(=O)O)C12C(=O)c1ccccc1C2=O` [2c, (3aS,9bS)-6,8-dichloro-4,9-dihydroxy-2-methyl-2,3,3a,9b-tetrahydrospiro[benzo [5,6][1,2]oxaphosphinino [3,4-c]pyrrole-1,2’-indene]-1’,3’-dione 4-oxide]: the melting point was > 300 °C. Moreover, in the data set with HuTu 80 [1], the IC50 was determined as 100 ± 8.4 µM. Also, in the data set on MCF-7, the IC50 is 77.6 ± 6.2 µM and the “SI, MCF-7” value was “ns”. Also, in the data set on M-HeLa, the IC50 was > 100 µM and the “SI, M-HeLa” value is “ns”. In the data set with HuTu 80 [2], the “SI, HuTu 80” value is given as “ns”. Further, the IC50 in the data set with Chang Liver [3] was > 100 µM.

`CN1C[C@@H]2[C@@H](c3ccc4ccccc4c3OP2(=O)O)C12C(=O)c1ccccc1C2=O` [2d, (3a’S,11a’S)-11’-hydroxy-2’-methyl-1’,2’,3a’,11a’-tetrahydrospiro[indene-2,3’-naphtho [2’,1’:5,6][1,2]oxaphosphinino [3,4-c]pyrrole]-1,3-dione 11’-oxide]: the melting point was > 300 °C. In addition, in the data set on HuTu 80 [1], the IC50 turned out to be 82.6 ± 7.6 µM. In the data set on MCF-7, the IC50 was determined as 92.2 ± 8.3 µM and the “SI, MCF-7” value was “ns”. Further, in the data set with M-HeLa, the IC50 was 60 ± 5.4 µM and the “SI, M-HeLa” value is “ns”. The “SI, HuTu 80” value in the data set with HuTu 80 [2] is “ns”. Also, the half-maximal inhibitory concentration (IC50) in the data set on Chang Liver [3] came to 57 ± 4.3 µM.

Regarding `O=C1c2ccccc2C(=O)C12[C@@H]1c3ccc4ccccc4c3OP(=O)(O)[C@@H]1[C@H]1CCCN12` [2f, (8a’S,8b’R,13a’S)-8’-hydroxy-8a’,8b’,9’,10’,11’,13a’-hexahydrospiro[indene-2,13’-naphtho [2’,1’:5,6][1,2]oxaphosphinino [3,4-a]pyrrolizine]-1,3-dione 8’-oxide], the melting point is > 300 °C. The solubility in water entry in the data set “Solubility in water” is “extremely low”.
